Measured values taken from BindingDB's records for doi:10.1021/acs.jmedchem.9b00781 (Seoul National University, 2019).

Assay: Inhibition of RNA-dependent RNA polymerase in ZIKV SL0612 infected in African green monkey Vero cells assessed as reduction in virus-induced cytopathic effect measured after 96 hrs post-infection by MTS assay

SMILES | EC50
O=c1ccn([C@H]2[C@H](O)[C@H](O)[C@@H](CO)[C@@H]2F)c(=O)[nH]1 | > 100 µM
O=c1ccn([C@H]2[C@H](O)[C@H](O)[C@@H](CO)[C@H]2F)c(=O)[nH]1 | > 100 µM
Nc1ncnc2c1ncn2[C@H]1[C@H](O)[C@H](O)[C@@H](CO)C1(F)F | 0.26 µM
CNc1ncnc2c1ncn2[C@H]1[C@H](O)[C@H](O)[C@@H](CO)C1(F)F | > 100 µM
O=c1ccn([C@H]2[C@H](O)[C@H](O)[C@@H](CO)C2(F)F)c(=O)[nH]1 | > 100 µM
CC(C)OC(=O)[C@H](C)N[P@](=O)(OC[C@@H]1[C@@H](O)[C@@H](O)[C@H](n2cnc3c(N)ncnc32)C1(F)F)Oc1ccccc1 | 1.75 µM
CC(C)OC(=O)[C@H](C)N[P@](=O)(OC[C@@H]1[C@@H](O)[C@@H](O)[C@H](n2ccc(=O)[nH]c2=O)[C@@H]1F)Oc1ccccc1 | > 100 µM
Nc1ccn([C@H]2[C@H](O)[C@H](O)[C@@H](CO)C2(F)F)c(=O)n1 | > 100 µM
CC(C)OC(=O)[C@H](C)N[P@](=O)(OC[C@@H]1[C@@H](O)[C@@H](O)[C@H](n2ccc(=O)[nH]c2=O)C1(F)F)Oc1ccccc1 | > 100 µM
CNc1ncnc2c1ncn2[C@H]1[C@H](O)[C@H](O)[C@@H](CO)[C@H]1F | > 100 µM
Nc1ccn([C@H]2[C@H](O)[C@H](O)[C@@H](CO)[C@H]2F)c(=O)n1 | > 100 µM
Nc1ncnc2c1ncn2[C@@H]1C[C@H](CO)[C@@H](O)[C@H]1O [3-(6-Amino-purin-9-yl)-5-hydroxymethyl-cyclopentane-1,2-diol] | 0.64 µM
